These results are taken from the OPERA property sets (Mansouri et al. 2018).

Each structure is given as a SMILES string.

Settings in one series: not given
A word on the boiling point: it is the temperature at which the vapour pressure of the liquid equals the pressure above it. The term melting point denotes the temperature of the solid-liquid transition. Molecule `Nc1ccc([N+](=O)[O-])cc1` had a boiling point of 332 °C, a log10 Henry constant (atm·m³/mol) of -8.9, a log10 Koc (L/kg) of 1.88 and a log10 vapour pressure (mmHg) of -5.49. Moreover, the melting point is 146 °C and the ready biodegradability entry is given as “not readily biodegradable”.
As for `CCN1CCOCC1`, the boiling point is 138 °C, the log10 vapour pressure (mmHg) worked out at 0.702, the melting point was -64 °C and the ready biodegradability result was “not readily biodegradable”.
In the case of `Nc1cccc([N+](=O)[O-])c1N`, the melting point worked out at 158 °C.
On to `CO/C=C(/C(=O)OC)c1ccccc1Oc1cc(Oc2ccccc2C#N)ncn1`, for which the log10 vapour pressure (mmHg) was -12.1 and the melting point was 116 °C.
In the case of `c1ccc2cc3c(cc2c1)-c1cccc2cccc-3c12`, the boiling point amounted to 480 °C, the log10 Henry constant (atm·m³/mol) was -6.23, the log10 Koc (L/kg) is 4.34 and the log10 biodegradation half-life (days) was 2.55. The log10 vapour pressure (mmHg) was -9.02, the melting point was 217 °C and the ready biodegradability result is listed as “not readily biodegradable”.
On to `COC(=O)Nc1ccccc1`, for which the log10 Koc (L/kg) was found to be 1.73.
`CC(=O)OCCC(C)C` yielded a boiling point of 142 °C, a log10 Henry constant (atm·m³/mol) of -3.23, a log10 Koa of 3.94 and a log10 vapour pressure (mmHg) of 0.748. Moreover, the melting point was -78.5 °C.
`COCCOc1cnc(NS(=O)(=O)c2ccccc2)nc1` showed a melting point of 153 °C.
Same read-out and setting: the result for `CCCC(C)(COC(N)=O)COC(=O)NC(C)C` (stereo not drawn) reads 92 °C; that for `CCCS(=O)(=O)O`, 7.5 °C.
In turn, `CC1CCC(O)CC1C` (stereo not drawn) came in with a boiling point of 189 °C.
The same measure, in the same setting: the result for `C[Si](C)(C)CBr` reads 116 °C.
In turn, `O=C1CCC(=O)N1` gave a boiling point of 288 °C, a log10 vapour pressure (mmHg) of -4.12 and a melting point of 126 °C.
For the molecule `O=C1CCCCCN1`, the boiling point was found to be 270 °C, the log10 vapour pressure (mmHg) was -2.8, the melting point came to 69.3 °C and the ready biodegradability entry is “readily biodegradable”.
For the molecule `CCC(Cl)[N+](=O)[O-]` (stereo not drawn), the boiling point turned out to be 142 °C.
In turn, `O=c1cc(O)c2ccccc2o1` yielded a melting point of 214 °C.
Turning to `N#C/C(=N\OCC1OCCO1)c1ccccc1`, the log10 vapour pressure (mmHg) is -5.4 and the melting point worked out at 77.7 °C.
In turn, `CCNc1nc(NC(C)CC)nc(OC)n1` (stereo not drawn) gave a log10 Koc (L/kg) of 2.78, a log10 vapour pressure (mmHg) of -5.14 and a melting point of 87 °C.
The molecule `CC(O)CNC1CCCCC1` (stereo not drawn) registered a log10 vapour pressure (mmHg) of -1.8.
Consider `CCCOC(=O)N1CCNCC1`, for which the ready biodegradability entry is given as “readily biodegradable”.
The molecule `CC(C)[C@@H]1CCCCC1=O` gave a melting point of 72.5 °C.
With `CC1(C)C2CCC1(C)C(Cl)C2` (stereo not drawn), the boiling point amounted to 208 °C and the melting point came to 132 °C.
As to `Nc1ccc(C(=O)c2ccccc2)cc1`, the melting point was 122 °C.
In turn, `CC1=CCC2C(C1)C2(C)C` (stereo not drawn) came in with a boiling point of 170 °C.
Take `Cc1cc2ccccc2cc1C`: the boiling point turned out to be 268 °C, the log10 Henry constant (atm·m³/mol) was -3.04, the log10 biodegradation half-life (days) was found to be 1.18 and the log10 vapour pressure (mmHg) is -2.96. The melting point was 105 °C and the ready biodegradability result is “readily biodegradable”.
Molecule `N#CCNCC#N` returned a log10 vapour pressure (mmHg) of -2.47 and a melting point of 70 °C.
For the molecule `Cc1c(Cl)ccc(OC(C)C(O)=Nc2ccccc2)c1Cl` (stereo not drawn), the melting point came to 146 °C.
In turn, `FCBr` came in with a boiling point of 19 °C.
`CC(C)c1ccc(O)cc1` showed a boiling point of 230 °C, a log10 vapour pressure (mmHg) of -1.34 and a melting point of 62.3 °C.
For the molecule `SCc1ccc(Cl)cc1`, the melting point was determined as 19.5 °C.
In turn, `FC(F)(F)CBr` registered a boiling point of 26 °C and a melting point of -93.9 °C.
For the molecule `C=Cc1ccc(C=C)cc1`, the melting point stood at 31 °C and the ready biodegradability entry is listed as “not readily biodegradable”.
Regarding `CC(C)(C)c1ccc(Br)cc1`, the boiling point was determined as 232 °C and the melting point was found to be 19 °C.
For `COCCOC`, the boiling point is 85 °C, the log10 vapour pressure (mmHg) is 1.68 and the melting point was -58 °C.
`O=C(CCCN1CCC(n2c(=O)[nH]c3ccccc32)CC1)c1ccc(F)cc1` showed a melting point of 171 °C.
On the same count and under the same terms, the result for `Cc1ccc(S)c(S)c1` reads 29 °C.
Same read-out and setting: the result for `O=C(O)C=Cc1cccc(Br)c1` reads 178 °C.
In turn, `O=C(Cl)C=Cc1ccccc1` came in with a boiling point of 257 °C and a melting point of 36 °C.
For the molecule `CC(=O)Oc1c(C)cc(OCC(O)CNC(C)C)c(C)c1C` (stereo not drawn), the melting point stood at 106 °C.

The series is the same for the next values; noted with them: fish.
`Clc1cc(-c2c(Cl)ccc(Cl)c2Cl)c(Cl)c(Cl)c1Cl` showed a log10 biotransformation half-life (days) of 2.47.
`Nc1ccc([N+](=O)[O-])cc1` displayed a log10 BCF of 0.6 and a log10 biotransformation half-life (days) of -0.51.
As to `c1ccc2cc3c(cc2c1)-c1cccc2cccc-3c12`, the log10 biotransformation half-life (days) is -0.06.
Molecule `Cc1cc2ccccc2cc1C` displayed a log10 biotransformation half-life (days) of 0.03.
`C=Cc1ccc(C=C)cc1`: the log10 BCF is 2.48 and the log10 biotransformation half-life (days) turned out to be 0.5.
